Source: article PMC11873900, “Insights into the Activation Mechanism of HCA1, HCA2, and HCA3” (Journal of Medicinal Chemistry, 2025)
Where two headings read alike, the source gives them in different places.

What was measured:
HCA1 [1] = conditions: cited from earlier work
HCA1 [2] = biological target: T1, HCA1 (Homo sapiens, UniProt Q9BXC0); experiment: cAMP inhibition (CRE-luc reporter) assay, HCA1 wild type; format: cell-based; conditions: HEK293 cells, mean ± SEM (Table S2a,b)
T1 construct: expressed in transfected cells; host or cells: HEK293
T1 sequence (Q9BXC0 whole entry): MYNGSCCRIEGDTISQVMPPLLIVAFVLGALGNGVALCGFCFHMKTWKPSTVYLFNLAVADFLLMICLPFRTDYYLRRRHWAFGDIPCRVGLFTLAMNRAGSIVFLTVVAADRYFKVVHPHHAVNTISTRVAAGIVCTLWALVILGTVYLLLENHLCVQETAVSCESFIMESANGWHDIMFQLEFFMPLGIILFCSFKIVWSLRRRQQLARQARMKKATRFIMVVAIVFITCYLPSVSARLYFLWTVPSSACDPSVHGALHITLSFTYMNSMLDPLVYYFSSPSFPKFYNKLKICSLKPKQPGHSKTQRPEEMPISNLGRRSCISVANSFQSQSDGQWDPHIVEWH
Experimental: (§1) Human embryonic kidney 293 (HEK293) cells were maintained in Dulbecco’s modified Eagle’s medium (DMEM) containing 10% fetal bovine serum (FBS) and antibiotics (100 U/mL penicillin and 100 μg/mL streptomycin) at 37 °C, 5% CO2. Cells (1 × 10^6 per well) were seeded on 6-well plates for 15 h and transiently transfected with a transfection cocktail containing 2 μg of plasmid DNA (1 μg of the target plasmid and 1 μg of pCRE-luc) and 6 μL of X-tremeGENE HP DNA transfection reagents dissolved in 200 μL of phenol red-free OPTI MEM. After 24 h incubation, the medium containing the transfection cocktail was replaced with a serum-supplemented normal culture medium, and cells were plated at a density of approximately 40000 cells/well in white opaque 96-well microplates for an additional 24 h. After 24 h, fresh medium with varied concentrations of ligands was added to the wells, and cells were incubated for 30 min at 37 °C, 5% CO2. Then, forsklin with a final concentration of 5 μM was added to each well for 6 h. Then, all of the medium was removed and 40 μL of Bright-Glo Luciferase Assay System reagent (Promega, U.K.) was added to each well. Luminance was measured in a luminometer (TECAN Spark, CH) after 10 min incubation.

HCA1 E166^45.51I = biological target: T2, HCA1 E166^45.51I (Homo sapiens, UniProt Q9BXC0, E166I); experiment: cAMP reporter assay, HCA1 mutant E166I; format: cell-based; conditions: HCA1 E166I (Figure 2f)
T2 construct: expressed in transfected cells; host or cells: HEK293
T2 sequence (Q9BXC0 whole entry E166I): as the sequence (Q9BXC0 whole entry) above, with E166I counted along it
Experimental: as §1

HCA1 R240^6.55A = biological target: T3, HCA1 R240^6.55A (Homo sapiens, UniProt Q9BXC0, R240A); experiment: cAMP reporter assay, HCA1 mutant R240A; format: cell-based; conditions: HCA1 R240A versus wild type (Figure 2f)
T3 construct: expressed in transfected cells; host or cells: HEK293
T3 sequence (Q9BXC0 whole entry R240A): as the sequence (Q9BXC0 whole entry) above, with R240A counted along it
Experimental: as §1

HCA1 R99A = biological target: T4, HCA1 R99A (Homo sapiens, UniProt Q9BXC0, R99A); experiment: cAMP reporter assay, HCA1 mutant R99A; format: cell-based; conditions: HCA1 R99A (Figure 2f)
T4 construct: expressed in transfected cells; host or cells: HEK293
T4 sequence (Q9BXC0 whole entry R99A): as the sequence (Q9BXC0 whole entry) above, with R99A counted along it
Experimental: as §1

HCA1 E166^45.51A = biological target: T5, HCA1 E166^45.51A (Homo sapiens, UniProt Q9BXC0, E166A); experiment: cAMP reporter assay, HCA1 mutant E166A; format: cell-based; conditions: HCA1 E166A (Figure 2f)
T5 construct: expressed in transfected cells; host or cells: HEK293
T5 sequence (Q9BXC0 whole entry E166A): as the sequence (Q9BXC0 whole entry) above, with E166A counted along it
Experimental: as §1

HCA1 H261^7.36F = biological target: T6, HCA1 H261^7.36F (Homo sapiens, UniProt Q9BXC0, H261F); experiment: cAMP reporter assay, HCA1 mutant H261F; format: cell-based; conditions: HCA1 H261F (Figure 2f)
T6 construct: expressed in transfected cells; host or cells: HEK293
T6 sequence (Q9BXC0 whole entry H261F): as the sequence (Q9BXC0 whole entry) above, with H261F counted along it
Experimental: as §1

[3] = biological target: T7, HCA3(1–129)/HCA2(130-) S178^45.51I (Homo sapiens, UniProt Q8TDS4, L107F/L83V/M103V/N86Y/S178I/V27A/W91S); experiment: IP1 accumulation assay, chimera HCA3(1–129)/HCA2(130-) with S178I; format: cell-based; conditions: HCA3(1–129)/HCA2(130-) with mutation S178I (Figure 3d)
T7 construct: swap the amino acid segments 1–129 between HCA2 and HCA3; creating chimeras HCA2(1–129)/HCA3(130-) and HCA3(1–129)/HCA2(130-); expressed in transfected cells; host or cells: HEK293
T7 sequence (Q8TDS4 whole entry V27A/L83V/N86Y/W91S/M103V/L107F/S178I): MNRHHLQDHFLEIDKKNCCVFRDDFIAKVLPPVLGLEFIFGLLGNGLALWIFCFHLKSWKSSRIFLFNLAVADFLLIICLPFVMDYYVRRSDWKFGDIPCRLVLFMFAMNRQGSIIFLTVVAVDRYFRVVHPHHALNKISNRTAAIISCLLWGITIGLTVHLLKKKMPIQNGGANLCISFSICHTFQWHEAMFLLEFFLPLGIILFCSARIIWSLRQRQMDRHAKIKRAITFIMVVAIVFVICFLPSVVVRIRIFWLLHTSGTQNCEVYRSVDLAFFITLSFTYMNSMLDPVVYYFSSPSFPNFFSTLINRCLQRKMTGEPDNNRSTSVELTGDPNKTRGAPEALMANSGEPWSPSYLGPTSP

HCA2(1–129)/HCA3(130-) = biological target: T8, HCA2(1–129)/HCA3(130-) (Homo sapiens, UniProt Q8TDS4, G173T/I156V/L176V/M167L/M317I/M346I/P168L/Q187R/R142W/R253H/S178I); experiment: IP1 accumulation assay, chimera HCA2(1–129)/HCA3(130-); format: cell-based; conditions: IP1 accumulation (Figure 3d)
T8 construct: swap the amino acid segments 1–129 between HCA2 and HCA3; creating chimeras HCA2(1–129)/HCA3(130-) and HCA3(1–129)/HCA2(130-); expressed in transfected cells; host or cells: HEK293
T8 sequence (Q8TDS4 with tags, fused parts or gaps with the stated changes): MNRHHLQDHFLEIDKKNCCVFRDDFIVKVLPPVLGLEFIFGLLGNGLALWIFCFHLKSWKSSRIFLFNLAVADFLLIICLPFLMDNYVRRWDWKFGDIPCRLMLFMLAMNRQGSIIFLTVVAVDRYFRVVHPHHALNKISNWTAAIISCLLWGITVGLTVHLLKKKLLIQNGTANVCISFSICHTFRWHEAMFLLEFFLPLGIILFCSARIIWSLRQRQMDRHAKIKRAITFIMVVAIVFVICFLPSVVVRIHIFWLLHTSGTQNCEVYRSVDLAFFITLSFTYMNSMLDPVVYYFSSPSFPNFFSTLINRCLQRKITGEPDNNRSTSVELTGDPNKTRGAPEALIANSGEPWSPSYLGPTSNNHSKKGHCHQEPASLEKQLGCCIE
Experimental: The HCA1/HCA2/HCA3 plasmid was transfected into the HEK293 cells (Invitrogen) and cultured for 2 days. The HEK293 cells expressing HCA1/HCA2/HCA3 were washed by PBS and resuspended by the stimulation buffer from a Cisbio Bioassays’ IP-One Gq kit. […] After incubation at 37 °C for 90 min, 3μl Tb Cryptate Antibody and 3μl IP1 d2 Reagent were added to 384-well plates per well. […] The data was analyzed by GraphPad Prism 8.4.0 (GraphPad Software).

[4] = biological target: T9, HCA2(1–129)/HCA3(130-) N86^2.63Y W91^ECL1S (Homo sapiens, UniProt Q8TDS4, G173T/I156V/L176V/M167L/M317I/M346I/N86Y/P168L/Q187R/R142W/R253H/S178I/W91S); experiment: IP1 accumulation assay, chimera HCA2(1–129)/HCA3(130-) with N86Y and W91S; format: cell-based; conditions: HCA2(1–129)/HCA3(130-) with N86Y and W91S (Figure 3d)
T9 construct: swap the amino acid segments 1–129 between HCA2 and HCA3; creating chimeras HCA2(1–129)/HCA3(130-) and HCA3(1–129)/HCA2(130-); expressed in transfected cells; host or cells: HEK293
T9 sequence (Q8TDS4 with tags, fused parts or gaps with the stated changes): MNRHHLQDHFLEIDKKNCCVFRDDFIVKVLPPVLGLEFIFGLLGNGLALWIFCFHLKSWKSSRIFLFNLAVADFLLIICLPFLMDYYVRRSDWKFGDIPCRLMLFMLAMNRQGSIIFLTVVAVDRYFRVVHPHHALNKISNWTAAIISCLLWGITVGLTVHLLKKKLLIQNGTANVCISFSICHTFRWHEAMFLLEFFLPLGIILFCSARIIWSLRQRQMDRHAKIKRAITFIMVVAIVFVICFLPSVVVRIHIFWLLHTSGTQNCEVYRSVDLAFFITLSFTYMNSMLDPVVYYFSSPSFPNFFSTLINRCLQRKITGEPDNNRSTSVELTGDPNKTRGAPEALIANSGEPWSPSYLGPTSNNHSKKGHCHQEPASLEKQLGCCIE

HCA3(1–129)/HCA2(130-) = biological target: T10, HCA3(1–129)/HCA2(130-) (Homo sapiens, UniProt P49019, H253R/I178S/I317M/I346M/L167M/L168P/R187Q/T173G/V156I/V176L/W142R); experiment: IP1 accumulation assay, chimera HCA3(1–129)/HCA2(130-); format: cell-based; conditions: IP1 accumulation (Figure 3d)
T10 construct: swap the amino acid segments 1–129 between HCA2 and HCA3; creating chimeras HCA2(1–129)/HCA3(130-) and HCA3(1–129)/HCA2(130-); expressed in transfected cells; host or cells: HEK293
T10 sequence (P49019 with tags, fused parts or gaps with the stated changes): as the sequence (Q8TDS4 whole entry V27A/L83V/N86Y/W91S/M103V/L107F/S178I) above, with I178S counted along it

3-hydroxybutyric acid [3-HBA]
EC50 (HCA1 [1]; HCA1): ~184 µM

O=C(O)c1cc(O)cc(O)c1 [3,5-DHBA, 3,5-dihydroxybenzoic acid]
pEC50 (HCA1 [2]): 3.7 ± 0.1 | activation efficacy compared with the wild type (HCA1 E166^45.51I): halving of the activation efficacy | reduction of activation efficacy (HCA1 R240^6.55A): around 50% | potency at mutant (HCA1 R99A): complete loss of potency | receptor activation (HCA1 E166^45.51A): inactivity | efficacy compared with H261A (HCA1 H261^7.36F): marked decrease of efficacy

CCCCCC(O)CC(=O)O (stereo not drawn) [3-HO, 3-hydroxy-octanoic acid]
activation of chimera [3]: highest potency | activation of chimera (HCA2(1–129)/HCA3(130-)): failed to activate | activation of chimera [4]: did not facilitate activation | activation of chimera (HCA3(1–129)/HCA2(130-)): capable of activating

CCOc1cc(Cl)c(C(=O)NC(=O)Nc2nc3ccc(CN4CCN(C)CC4)cc3s2)cc1N1CCOCC1 [AZ2, 2-chloro-4-ethoxy-N-[[6-[(4-methylpiperazin-1-yl)methyl]-1,3-benzothiazol-2-yl]carbamoyl]-5-morpholino-benzamide]
EC50 (HCA1 [1]; HCA1): 0.07 to 0.18 µM

CC(O)C(=O)O (stereo not drawn) [lactate]
pEC50 (HCA1 [2]): 3.2 ± 0.3 | potency at mutant (HCA1 R99A): complete loss of potency | EC50 (HCA1 [1]; HCA1, endogenous agonist): 1000 to 5000 µM
